{
  "source": "paper PMC5394143",
  "about": "(Clinical Drug Investigation, 2017)",
  "key": {"clinical [1]": {"test": "clinical", "settings": "both, human, plasma, oral, 50 mg"}, "[2]": {"settings": "for AUC(0-inf) / Cmax / half-life / AUC(0-t): both, human, plasma; for AUC(0-inf) / Cmax / half-life: oral; for AUC(0-t): po"}, "CYP3A4 [3]": {"system": "CYP3A4", "settings": "cited from earlier work"}, "CYP3A4 [4]": {"system": "CYP3A4", "settings": "cited from earlier work", "remark": "listed apart in the source"}, "CYP1A2": {"system": "CYP1A2", "settings": "single dose of 50 mg osilodrostat"}, "CYP2D6": {"biological_target": "CYP2D6 (Homo sapiens, UniProt P10635)", "sequence (P10635 whole entry)": "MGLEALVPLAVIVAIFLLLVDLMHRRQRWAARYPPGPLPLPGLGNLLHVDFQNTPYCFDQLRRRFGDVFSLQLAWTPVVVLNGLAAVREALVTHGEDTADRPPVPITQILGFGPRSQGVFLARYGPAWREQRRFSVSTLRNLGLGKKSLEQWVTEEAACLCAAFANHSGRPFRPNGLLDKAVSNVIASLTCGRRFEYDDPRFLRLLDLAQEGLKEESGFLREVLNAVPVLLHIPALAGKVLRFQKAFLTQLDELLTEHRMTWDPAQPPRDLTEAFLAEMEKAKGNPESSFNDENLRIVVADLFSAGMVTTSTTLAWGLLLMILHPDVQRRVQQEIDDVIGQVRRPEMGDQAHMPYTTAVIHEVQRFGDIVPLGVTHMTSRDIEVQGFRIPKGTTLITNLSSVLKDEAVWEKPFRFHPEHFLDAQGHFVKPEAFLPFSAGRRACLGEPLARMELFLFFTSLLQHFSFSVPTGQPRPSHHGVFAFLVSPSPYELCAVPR", "settings": "single dose of 50 mg osilodrostat"}, "CYP3A4/5": {"system": "CYP3A4/5", "settings": "single dose of 50 mg osilodrostat"}, "[5]": {"settings": "safety set, 20 subjects"}, "clinical [6]": {"test": "clinical", "settings": "both, human, plasma, po, 50 mg"}, "[7]": {"settings": "cited from earlier work"}, "[8]": {"system": "urinary free cortisol (UFC)", "settings": "2–30 mg twice daily, 10 weeks, 11/12 patients with Cushing’s disease; cited from earlier work"}, "[9]": {"system": "urinary free cortisol (UFC)", "settings": "after 22 weeks of treatment, 15/19 patients; cited from earlier work"}, "[10]": {"settings": "substrate alone, geometric mean (CV%)"}, "[11]": {"settings": "C max, substrate alone, geometric mean (CV%)"}},
  "note": "Read-outs that look alike come from different tables or passages of the source.",
  "data": [
    {"compound": "Cn1c(=O)c2c(ncn2C)n(C)c1=O", "note": "[Caffeine, caffeine]", "values": [
      {"measurement": "AUC(0-inf)", "setting": "clinical [1]", "value": 41900, "unit": "ng·h/mL"},
      {"measurement": "AUC(0-t)", "setting": "clinical [1]", "value": 41100, "unit": "ng·h/mL"},
      {"measurement": "Cmax", "setting": "clinical [1]", "value": 2640, "unit": "ng/mL"},
      {"measurement": "half-life", "setting": "clinical [1]", "value": 7.39, "unit": "h"},
      {"measurement": "AUC(0-inf)", "setting": "[2]", "value": 16200, "unit": "ng·h/mL"},
      {"measurement": "Cmax", "setting": "[2]", "value": 2500, "unit": "ng/mL"},
      {"measurement": "half-life", "setting": "[2]", "value": 5.39, "unit": "h"},
      {"measurement": "AUC(0-t)", "setting": "[2]", "value": 17200, "unit": "ng·h/mL"},
      {"measurement": "CL/F", "setting": "[2]; [10]", "value": "6.18 (44.8) L/h"}
    ]},
    {"compound": "COc1ccc2c(c1)[C@]13CCCC[C@@H]1[C@H](C2)N(C)CC3", "note": "[Dextromethorphan, dextromethorphan]", "values": [
      {"measurement": "AUC(0-inf)", "setting": "[2]", "value": 22.8, "unit": "ng·h/mL"},
      {"measurement": "half-life", "setting": "[2]", "value": 7.63, "unit": "h"},
      {"measurement": "Cmax", "setting": "[2]; [11]", "value": 1.24, "unit": "ng/mL"},
      {"measurement": "CL/F", "setting": "[2]; [10]", "value": "1310 (193.8) L/h"}
    ]},
    {"compound": "CC(=O)N1CCN(c2ccc(OCC3COC(Cn4ccnc4)(c4ccc(Cl)cc4Cl)O3)cc2)CC1", "note": "(stereo not drawn) [Ketoconazole, ketoconazole]", "values": [
      {"measurement": "FDA inhibitor classification, CYP3A4", "setting": "CYP3A4 [3]; based on midazolam AUC change", "value": "strong inhibitor (strong inhibitor, ≥5-fold increase in AUC)"},
      {"measurement": "increase in midazolam AUC after ketoconazole administration", "setting": "CYP3A4 [3]", "value": "≤ 16", "unit": "fold"}
    ]},
    {"compound": "Cc1ncc2n1-c1ccc(Cl)cc1C(c1ccccc1F)=NC2", "note": "[Midazolam, midazolam]", "values": [
      {"measurement": "AUC(0-t)", "setting": "clinical [1]", "value": 31.7, "unit": "ng·h/mL"},
      {"measurement": "Cmax", "setting": "clinical [1]", "value": 12.8, "unit": "ng/mL"},
      {"measurement": "half-life", "setting": "clinical [1]", "value": 4.81, "unit": "h"},
      {"measurement": "AUC(0-inf)", "setting": "[2]", "value": 22, "unit": "ng·h/mL"},
      {"measurement": "half-life", "setting": "[2]", "value": 4.44, "unit": "h"},
      {"measurement": "Cmax", "setting": "[2]; [11]", "value": 8.78, "unit": "ng/mL"},
      {"measurement": "CL/F", "setting": "[2]; [10]", "value": "91.0 (39.6) L/h"}
    ]},
    {"compound": "Clc1ccc(C(c2ccccc2Cl)C(Cl)Cl)cc1", "note": "(stereo not drawn) [Mitotane, mitotane]", "values": [
      {"measurement": "CYP3A4 induction", "setting": "CYP3A4 [4]", "value": "strong inducer"}
    ]},
    {"compound": "COc1ccc2[nH]c([S+]([O-])Cc3ncc(C)c(OC)c3C)nc2c1", "note": "(stereo not drawn) [Omeprazole, omeprazole]", "values": [
      {"measurement": "AUC(0-inf)", "setting": "clinical [1]", "value": 885, "unit": "ng·h/mL"},
      {"measurement": "AUC(0-t)", "setting": "clinical [1]", "value": 852, "unit": "ng·h/mL"},
      {"measurement": "Cmax", "setting": "clinical [1]", "value": 420, "unit": "ng/mL"},
      {"measurement": "AUC(0-inf)", "setting": "[2]", "value": 618, "unit": "ng·h/mL"},
      {"measurement": "half-life", "setting": "[2]", "value": 0.77, "unit": "h"},
      {"measurement": "AUC(0-t)", "setting": "[2]", "value": 460, "unit": "ng·h/mL"},
      {"measurement": "C max", "setting": "[2]; [10]", "value": "271 (69.7) ng/mL"},
      {"measurement": "CL/F", "setting": "[2]; [10]", "value": "32.3 (92.9) L/h"}
    ]},
    {"compound": "N#Cc1ccc([C@H]2CCc3cncn32)c(F)c1", "note": "[Osilodrostat]", "values": [
      {"measurement": "FDA inhibitor classification, CYP1A2", "setting": "CYP1A2", "value": "moderate inhibitor (moderate inhibitor, ≥2- but <5-fold increase in AUC)"},
      {"measurement": "FDA inhibitor classification, CYP2D6", "setting": "CYP2D6", "value": "weak inhibitor (weak inhibitor, ≥1.25- but <2-fold increase in AUC)"},
      {"measurement": "FDA inhibitor classification, CYP3A4/5", "setting": "CYP3A4/5", "value": "weak inhibitor (weak inhibitor, ≥1.25- but <2-fold increase in AUC)"},
      {"measurement": "fatigue (suspected drug related)", "setting": "[5]", "value": 15, "unit": "%"},
      {"measurement": "flatulence and diarrhea (suspected drug related)", "setting": "[5]", "value": 5, "unit": "%"},
      {"measurement": "grade 3 or 4 AEs or serious AEs", "setting": "[5]", "value": "No grade 3 or 4 AEs, or serious AEs"},
      {"measurement": "subjects with AEs suspected to be drug related", "setting": "[5]", "value": 30, "unit": "%"},
      {"measurement": "AUC(0-inf)", "setting": "clinical [6]", "value": 3430, "unit": "ng·h/mL"},
      {"measurement": "Cmax", "setting": "clinical [6]", "value": 392, "unit": "ng/mL"},
      {"measurement": "Tmax", "setting": "clinical [6]", "value": "~1.53", "unit": "h"},
      {"measurement": "half-life", "setting": "clinical [6]", "value": 4.73, "unit": "h"},
      {"measurement": "half-life", "setting": "[7]", "value": "3 to 5", "unit": "h"},
      {"measurement": "patients with normalized UFC", "setting": "[8]", "value": 92, "unit": "%"},
      {"measurement": "patients with normalized UFC", "setting": "[9]", "value": 79, "unit": "%"}
    ]}
  ]
}
